# Results as given in US20200017496A1 (priority 2017, published 2020).
# Like-named read-outs stand apart in the source and are kept apart here.
# Columns and labels:
# [1] = tested on: Proteus mirabilis (PMI) isolates; test: microbe, parasite or virus in culture; assay type: cell-based; conditions: for MIC: Proteus mirabilis, read-out: MIC
# In short: (§1)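 Inoculum 5·10^5 CFU/mL (final), log phase, ca-MHB; 16-20 h, 35° C, ambient air. MIC = lowest conc. with no visible growth; ATB MIC read at each compound level.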
# [2] = in vivo; design: species or system Swiss Mouse; conditions: male, Swiss, mouse, in vivo, 10 mg/kg
# Description: Water and food were available ad libitum throughout the study. Mouse were handled in accordance with the institutional and national guidelines for the care and use of laboratory animals. […] Drugs were administered by oral gavage using feeding needle. […] Plasma samples were stored at -80° C. until bioanalysis. […] Plasma samples bioanalysis and data analysis The plasma samples (20 μl) were thawed at 0° C. […] Standard samples were prepared by spiking the blank plasma into concentrations 10-5 000 ng/ml and otherwise treated as the samples. […] Mass spectrometric detection involved electrospray ionization in the negative mode followed by multiple reaction monitoring of the drugs and internal standard transitions. Actual drug concentrations were deduced from interpolation of the standard curve. The pharmacokinetic parameters were calculated using XLfit (IDBS) and Excel (Microsoft) software, using standard non-compartmental methods. The intraduodenal bioavailability was calculated by dividing the AUC obtained from the intraduodenal administration by the AUC obtained from the intravenous administration.
# [3] = tested on: Morganella morganii (MMO) isolates; test: MIC of compounds alone and combined with antibacterials, broth microdilution (CLSI); assay type: cell-based
# In short: as §1
smiles,measurement,setting,value
"C=CC1=C(C(=O)O)N2C(=O)[C@@H](NC(=O)/C(=N\OCC(=O)O)c3csc(N)n3)[C@H]2SC1 [FIX, Cefixime]",MIC ATB in combination,"[1]; PMI UFR82, AF1 @ 4 μg/mL",<=0.25 μg/mL
same,MIC ATB in combination,"[1]; PMI UFR82, AF1 @ 8 μg/mL",<=0.25 μg/mL
same,MIC ATB in combination,"[1]; PMI UFR120, AF1 @ 4 μg/mL",<=0.25 μg/mL
same,MIC ATB in combination,"[1]; PMI UFR120, AF1 @ 8 μg/mL",<=0.25 μg/mL
same,MIC ATB in combination,"[1]; PMI UFR121, AF1 @ 4 μg/mL",<=0.25 μg/mL
same,MIC ATB in combination,"[1]; PMI UFR121, AF1 @ 8 μg/mL",<=0.25 μg/mL
same,MIC ATB in combination,"[1]; PMI UFR122, AF1 @ 4 μg/mL",<=0.25 μg/mL
same,MIC ATB in combination,"[1]; PMI UFR122, AF1 @ 8 μg/mL",<=0.25 μg/mL
same,MIC ATB in combination,"[1]; PMI UFR123, AF1 @ 4 μg/mL",<=0.25 μg/mL
same,MIC ATB in combination,"[1]; PMI UFR123, AF1 @ 8 μg/mL",<=0.25 μg/mL
same,MIC ATB in combination,"[1]; PMI UFR124, AF1 @ 4 μg/mL",<=0.25 μg/mL
same,MIC ATB in combination,"[1]; PMI UFR124, AF1 @ 8 μg/mL",<=0.25 μg/mL
same,MIC ATB in combination,"[1]; PMI UFR125, AF1 @ 4 μg/mL",<=0.25 μg/mL
same,MIC ATB in combination,"[1]; PMI UFR125, AF1 @ 8 μg/mL",<=0.25 μg/mL
same,MIC ATB in combination,"[1]; PMI UFR126, AF1 @ 4 μg/mL",0.031 µg/mL
same,MIC ATB in combination,"[1]; PMI UFR126, AF1 @ 8 μg/mL",0.016 µg/mL
same,MIC ATB in combination,"[1]; PMI UFR127, AF1 @ 4 μg/mL",<=0.25 μg/mL
same,MIC ATB in combination,"[1]; PMI UFR127, AF1 @ 8 μg/mL",<=0.25 μg/mL
same,MIC ATB in combination,"[1]; PMI UFR129, AF1 @ 4 μg/mL",<=0.25 μg/mL
same,MIC ATB in combination,"[1]; PMI UFR129, AF1 @ 8 μg/mL",<=0.25 μg/mL
same,MIC ATB in combination,"[1]; PMI UFR130, AF1 @ 4 μg/mL",<=0.25 μg/mL
same,MIC ATB in combination,"[1]; PMI UFR130, AF1 @ 8 μg/mL",<=0.25 μg/mL
same,MIC ATB in combination,"[1]; PMI UFR237, AF1 @ 4 μg/mL",<=0.25 μg/mL
same,MIC ATB in combination,"[1]; PMI UFR237, AF1 @ 8 μg/mL",<=0.25 μg/mL
same,MIC,"[1]; PMI UFR126, alone",1020 µg/mL
same,MIC,"[1]; PMI UFR127, alone",> 128 µg/mL
same,MIC,"[1]; strain PMI UFR82 (CMY-2), ATB alone",8 µg/mL
same,MIC,"[1]; strain PMI UFR82 (CMY-2), CLA @ 4 μg/ml+ ATB",4 µg/mL
same,MIC,"[1]; strain PMI UFR120 (TEM-1, SHV-11, CTX-M-14), ATB alone",0.5 µg/mL
same,MIC,"[1]; strain PMI UFR120 (TEM-1, SHV-11, CTX-M-14), CLA @ 4 μg/ml+ ATB",≤ 0.25 µg/mL
same,MIC,"[1]; strain PMI UFR121 (TEM-1, TEM-52), ATB alone",128 µg/mL
same,MIC,"[1]; strain PMI UFR121 (TEM-1, TEM-52), CLA @ 4 μg/ml+ ATB",≤ 0.25 µg/mL
same,MIC,"[1]; strain PMI UFR122 (TEM-1, CTX-M-15), ATB alone",1 µg/mL
same,MIC,"[1]; strain PMI UFR122 (TEM-1, CTX-M-15), CLA @ 4 μg/ml+ ATB",≤ 0.25 µg/mL
same,MIC,"[1]; strain PMI UFR123 (CTX-M-1), ATB alone",128 µg/mL
same,MIC,"[1]; strain PMI UFR123 (CTX-M-1), CLA @ 4 μg/ml+ ATB",≤ 0.25 µg/mL
same,MIC,"[1]; strain PMI UFR124 (CTX-M-2), ATB alone",> 128 µg/mL
same,MIC,"[1]; strain PMI UFR124 (CTX-M-2), CLA @ 4 μg/ml+ ATB",≤ 0.25 µg/mL
same,MIC,"[1]; strain PMI UFR125 (CTX-M-71), ATB alone",0.5 µg/mL
same,MIC,"[1]; strain PMI UFR125 (CTX-M-71), CLA @ 4 μg/ml+ ATB",≤ 0.25 µg/mL
same,MIC,"[1]; strain PMI UFR126 (TEM-2, PER-1), ATB alone",1020 µg/mL
same,MIC,"[1]; strain PMI UFR126 (TEM-2, PER-1), CLA @ 4 μg/ml+ ATB",≤ 0.25 µg/mL
same,MIC,"[1]; strain PMI UFR127 (VEB-1), ATB alone",> 128 µg/mL
same,MIC,"[1]; strain PMI UFR127 (VEB-1), CLA @ 4 μg/ml+ ATB",≤ 0.25 µg/mL
same,MIC,"[1]; strain PMI UFR129 (TEM-1, VEB-6), ATB alone",> 128 µg/mL
same,MIC,"[1]; strain PMI UFR129 (TEM-1, VEB-6), CLA @ 4 μg/ml+ ATB",≤ 0.25 µg/mL
same,MIC,"[1]; strain PMI UFR130 (CMY-2), ATB alone",8 µg/mL
same,MIC,"[1]; strain PMI UFR130 (CMY-2), CLA @ 4 μg/ml+ ATB",8 µg/mL
same,MIC,"[1]; strain PMI UFR237 (VEB-6), ATB alone",> 128 µg/mL
same,MIC,"[1]; strain PMI UFR237 (VEB-6), CLA @ 4 μg/ml+ ATB",≤ 0.25 µg/mL
same,AUC(0-inf),[2]; iv,37200 ng·h/mL
same,bioavailability,[2]; po,45%
same,MIC ATB in combination,"[3]; MMO 200321, AF1 @ 4 μg/mL",4 µg/mL
same,MIC ATB in combination,"[3]; MMO 200321, AF1 @ 8 μg/mL",4 µg/mL
same,MIC ATB in combination,"[3]; MMO UFR144, AF1 @ 4 μg/mL",2 µg/mL
same,MIC ATB in combination,"[3]; MMO UFR144, AF1 @ 8 μg/mL",2 µg/mL
same,MIC ATB in combination,"[3]; MMO UFR240, AF1 @ 4 μg/mL",<=0.25 μg/mL
same,MIC ATB in combination,"[3]; MMO UFR240, AF1 @ 8 μg/mL",<=0.25 μg/mL
same,MIC ATB in combination,"[3]; MMO UFR241, AF1 @ 4 μg/mL",2 µg/mL
same,MIC ATB in combination,"[3]; MMO UFR241, AF1 @ 8 μg/mL",<=0.25 μg/mL
